Data from US20100034762A1, “Novel enrichment methods for gallic acid esters including 1-O-galloy1-bata-D-glucose and mucic acid gallates medicaments, therapeutic applications and methods of treatment thereof” (priority 2008, published 2010).

Key:
[1] = Oxygen Radical Absorbance Capacity (ORAC); conditions: Trolox equivalents
[2] = DPPH scavenging

DPPH IC50 [2] [µg/mL]	Compound	ORAC (μmol TE/gm) [1] [μmol TE/gm]
0.32	O=C(O)c1cc(O)c(O)c(O)c1 [Gallic acid, gallic acid]	6712
1.93	O=C1O[C@H]([C@@H](O)CO)C(O)=C1O [Vitamin C, Ascorbic acid]	3400
